Conditions: Liquid, Vibrating tube method

CCCCCCCCCC [decane]
Conditions | mass density [kg/m3]
333.15 K, 34442 kPa | 727.7
333.15 K, 34445 kPa | 727.8
333.16 K, 815 kPa | 699.9
333.16 K, 842 kPa | 699.9
333.16 K, 881 kPa | 700
333.16 K, 941 kPa | 700
333.16 K, 2806 kPa | 701.9
333.16 K, 2881 kPa | 702
333.16 K, 2921 kPa | 701.9
333.16 K, 3005 kPa | 702
333.16 K, 4814 kPa | 703.9
333.16 K, 4927 kPa | 703.9
333.16 K, 5007 kPa | 704
333.16 K, 5592 kPa | 704.7
333.16 K, 5608 kPa | 704.7
333.16 K, 5623 kPa | 704.7
333.16 K, 5704 kPa | 704.7
333.16 K, 5748 kPa | 704.8
333.16 K, 5756 kPa | 704.7
333.16 K, 5775 kPa | 704.7
333.16 K, 5795 kPa | 704.8
333.16 K, 5811 kPa | 704.9
333.16 K, 5830 kPa | 704.8
333.16 K, 5852 kPa | 704.8
333.16 K, 5874 kPa | 704.9
333.16 K, 5896 kPa | 704.9
333.16 K, 5917 kPa | 705
333.16 K, 5934 kPa | 704.9
333.16 K, 5956 kPa | 704.9
333.16 K, 5973 kPa | 705
333.16 K, 6001 kPa | 704.9
333.16 K, 6018 kPa | 705
333.16 K, 6045 kPa | 704.9
333.16 K, 6069 kPa | 705.1
333.16 K, 6092 kPa | 705
333.16 K, 6116 kPa | 705.1
333.16 K, 6643 kPa | 705.5
333.16 K, 6667 kPa | 705.5
333.16 K, 6688 kPa | 705.6
333.16 K, 6713 kPa | 705.6
333.16 K, 6738 kPa | 705.6
333.16 K, 6763 kPa | 705.7
333.16 K, 6796 kPa | 705.7
333.16 K, 6822 kPa | 705.8
333.16 K, 6844 kPa | 705.8
333.16 K, 7378 kPa | 706.3
333.16 K, 7414 kPa | 706.2
333.16 K, 7450 kPa | 706.4
333.16 K, 7482 kPa | 706.3
333.16 K, 7512 kPa | 706.3
333.16 K, 7550 kPa | 706.4
333.16 K, 7575 kPa | 706.4
333.16 K, 7610 kPa | 706.5
333.16 K, 7628 kPa | 706.3
333.16 K, 7651 kPa | 706.4
333.16 K, 7667 kPa | 706.6
333.16 K, 7693 kPa | 706.5
333.16 K, 7720 kPa | 706.6
333.16 K, 7744 kPa | 706.6
333.16 K, 7771 kPa | 706.7
333.16 K, 7795 kPa | 706.6
333.16 K, 7812 kPa | 706.5
333.16 K, 7830 kPa | 706.6
333.16 K, 7853 kPa | 706.7
333.16 K, 7871 kPa | 706.8
333.16 K, 7897 kPa | 706.8
333.16 K, 7918 kPa | 706.7
333.16 K, 7939 kPa | 706.8
